*1 amine or outer side, *2 acyl side, *3 side chain or, on linkers, in order; H or OH if unused. Where a SMILES comes first, the peptide text is derived from it. Side-chain parts run from the residue outwards. [ ]: non-standard residue; d: D form. The star is where a group is joined. γGlu = O=C(O)[C@H](CCC(=O)[*:2])N[*:1]; Palmitoyl = CCCCCCCCCCCCCCCC(=O)*; Orn = NCCC[C@H](N)C(=O)O; Aib = CC(C)(N)C(=O)O
Target: T1, human GLP-1 receptor (hGLP-1 R) (Homo sapiens, UniProt P43220)
T1 construct: expressed in transfected cells; host or cells: HEK-293
T1 sequence (P43220 24-463): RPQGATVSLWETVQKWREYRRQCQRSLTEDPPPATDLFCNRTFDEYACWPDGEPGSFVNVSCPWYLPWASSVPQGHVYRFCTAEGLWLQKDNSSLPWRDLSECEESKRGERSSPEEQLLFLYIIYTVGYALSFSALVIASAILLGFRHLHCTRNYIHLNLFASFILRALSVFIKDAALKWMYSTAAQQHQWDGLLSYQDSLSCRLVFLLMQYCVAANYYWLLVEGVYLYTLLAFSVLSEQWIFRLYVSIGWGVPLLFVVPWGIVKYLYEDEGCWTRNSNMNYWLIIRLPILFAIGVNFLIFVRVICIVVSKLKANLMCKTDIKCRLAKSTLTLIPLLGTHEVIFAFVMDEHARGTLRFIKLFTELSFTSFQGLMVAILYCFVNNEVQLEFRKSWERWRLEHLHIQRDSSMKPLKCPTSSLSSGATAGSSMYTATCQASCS
Assay: cAMP response (HTRF) of HEK-293 cells stably expressing human GLP-1 receptor
Format: cell-based
Settings: HEK-293 cells expressing human GLP-1 receptor, cAMP formation
Procedure: cAMP content of cells was determined using a kit from Cisbio Corp. (cat. no. 62AM4PEC) based on HTRF (Homogenous Time Resolved Fluorescence). For preparation, cells were split into T175 culture flasks and grown overnight to near confluency in medium (DMEM/10% FBS). Medium was then removed and cells washed with PBS lacking calcium and magnesium, followed by proteinase treatment with accutase (Sigma-Aldrich cat. no. A6964). Detached cells were washed and resuspended in assay buffer (1×HBSS; 20 mM HEPES, 0.1% BSA, 2 mM IBMX) and cellular density determined. […] For measurement, 25 μl of test compound in assay buffer was added to the wells, followed by incubation for 30 minutes at room temperature.

Structure (SMILES): CCCCCCCCCCCCCCCC(=O)N[C@@H](CCC(=O)NCCCC[C@H](NC(=O)[C@H](CO)NC(=O)[C@@H]1CCCN1C(=O)[C@@H]1CCCN1C(=O)[C@@H]1CCCN1C(=O)[C@H](C)NC(=O)CNC(=O)[C@H](CO)NC(=O)[C@H](CO)NC(=O)[C@@H]1CCCN1C(=O)CNC(=O)CNC(=O)[C@H](CC(N)=O)NC(=O)[C@H](CCCCN)NC(=O)[C@H](CC(C)C)NC(=O)[C@H](Cc1c[nH]c2ccccc12)NC(=O)[C@H](CCC(=O)O)NC(=O)[C@@H](NC(=O)[C@H](Cc1ccccc1)NC(=O)[C@H](CC(=O)O)NC(=O)[C@H](CCC(N)=O)NC(=O)[C@H](C)NC(=O)[C@H](CCCNC(=N)N)NC(=O)[C@H](CCCNC(=N)N)NC(=O)[C@H](CO)NC(=O)[C@H](CC(=O)O)NC(=O)[C@H](CCSC)NC(=O)[C@H](CCC(N)=O)NC(=O)[C@H](CCCCN)NC(=O)[C@H](CO)NC(=O)[C@H](CC(C)C)NC(=O)[C@H](CC(=O)O)NC(=O)[C@H](CO)NC(=O)[C@@H](NC(=O)[C@H](Cc1ccccc1)NC(=O)[C@@H](NC(=O)CNC(=O)[C@H](CCC(N)=O)NC(=O)C(C)(C)NC(=O)[C@@H](N)Cc1c[nH]cn1)[C@@H](C)O)[C@@H](C)O)[C@@H](C)CC)C(N)=O)C(=O)O [(59)] (H-H[Aib]QGTFTSDLSKQMDSRRAQDFIEWLKNGGPSSGAPPPSK([γGlu-Palmitoyl])-NH2)
- EC50: 2.9 pM

Structure (SMILES): CCCCCCCCCCCCCCCC(=O)N[C@@H](CCC(=O)NCCCC[C@H](NC(=O)[C@H](CO)NC(=O)[C@@H]1CCCN1C(=O)[C@@H]1CCCN1C(=O)[C@@H]1CCCN1C(=O)[C@H](C)NC(=O)CNC(=O)[C@H](CO)NC(=O)[C@H](CO)NC(=O)[C@@H]1CCCN1C(=O)CNC(=O)CNC(=O)[C@H](CC(N)=O)NC(=O)[C@H](CCCCN)NC(=O)[C@H](CC(C)C)NC(=O)[C@H](Cc1c[nH]c2ccccc12)NC(=O)[C@H](CCC(=O)O)NC(=O)[C@@H](NC(=O)[C@H](Cc1ccccc1)NC(=O)[C@H](CC(=O)O)NC(=O)[C@H](CCC(N)=O)NC(=O)[C@H](C)NC(=O)[C@H](CCCNC(=N)N)NC(=O)[C@H](CCCNC(=N)N)NC(=O)[C@H](CO)NC(=O)[C@H](CCC(=O)O)NC(=O)[C@H](CCSC)NC(=O)[C@H](CCC(N)=O)NC(=O)[C@H](CCCCN)NC(=O)[C@H](CO)NC(=O)[C@H](CC(C)C)NC(=O)[C@H](CC(=O)O)NC(=O)[C@H](CO)NC(=O)[C@@H](NC(=O)[C@H](Cc1ccccc1)NC(=O)[C@@H](NC(=O)CNC(=O)[C@H](CCC(N)=O)NC(=O)[C@@H](CO)NC(=O)[C@@H](N)Cc1c[nH]cn1)[C@@H](C)O)[C@@H](C)O)[C@@H](C)CC)C(N)=O)C(=O)O [(61)] (H-H[dS]QGTFTSDLSKQMESRRAQDFIEWLKNGGPSSGAPPPSK([γGlu-Palmitoyl])-NH2)
- EC50: 4.2 pM

Structure (SMILES): CCCCCCCCCCCCCCCC(=O)N[C@@H](CCC(=O)NCCCC[C@H](NC(=O)[C@H](CO)NC(=O)[C@@H]1CCCN1C(=O)[C@@H]1CCCN1C(=O)[C@@H]1CCCN1C(=O)[C@H](C)NC(=O)CNC(=O)[C@H](CO)NC(=O)[C@H](CO)NC(=O)[C@@H]1CCCN1C(=O)CNC(=O)CNC(=O)[C@H](CC(N)=O)NC(=O)[C@H](CCCCN)NC(=O)[C@H](CC(C)C)NC(=O)[C@H](Cc1c[nH]c2ccccc12)NC(=O)[C@H](CCC(=O)O)NC(=O)[C@@H](NC(=O)[C@H](Cc1ccccc1)NC(=O)[C@H](CC(=O)O)NC(=O)[C@H](CCC(N)=O)NC(=O)[C@H](C)NC(=O)[C@H](CCCNC(=N)N)NC(=O)[C@H](CCCNC(=N)N)NC(=O)[C@H](CCCCN)NC(=O)[C@H](CC(=O)O)NC(=O)[C@H](CCSC)NC(=O)[C@H](CCC(N)=O)NC(=O)[C@H](CCCCN)NC(=O)[C@H](CO)NC(=O)[C@H](CC(C)C)NC(=O)[C@H](CC(=O)O)NC(=O)[C@H](CO)NC(=O)[C@@H](NC(=O)[C@H](Cc1ccccc1)NC(=O)[C@@H](NC(=O)CNC(=O)[C@H](CCC(N)=O)NC(=O)[C@@H](CO)NC(=O)[C@@H](N)Cc1c[nH]cn1)[C@@H](C)O)[C@@H](C)O)[C@@H](C)CC)C(N)=O)C(=O)O [(69)] (H-H[dS]QGTFTSDLSKQMDKRRAQDFIEWLKNGGPSSGAPPPSK([γGlu-Palmitoyl])-NH2)
- EC50: 7.6 pM

Structure (SMILES): CCCCCCCCCCCCCCCC(=O)N[C@@H](CCC(=O)NCCCC[C@H](NC(=O)[C@H](CO)NC(=O)[C@@H]1CCCN1C(=O)[C@@H]1CCCN1C(=O)[C@@H]1CCCN1C(=O)[C@H](C)NC(=O)CNC(=O)[C@H](CO)NC(=O)[C@H](CO)NC(=O)[C@@H]1CCCN1C(=O)CNC(=O)CNC(=O)C(C)(C)NC(=O)[C@H](CCCCN)NC(=O)[C@H](CC(C)C)NC(=O)[C@H](Cc1c[nH]c2ccccc12)NC(=O)[C@H](CCC(=O)O)NC(=O)[C@@H](NC(=O)[C@H](Cc1ccccc1)NC(=O)[C@H](CC(=O)O)NC(=O)[C@H](CCC(N)=O)NC(=O)[C@H](C)NC(=O)[C@H](CCCNC(=N)N)NC(=O)[C@H](CCCNC(=N)N)NC(=O)[C@H](CO)NC(=O)[C@H](CC(=O)O)NC(=O)[C@H](CCSC)NC(=O)[C@H](CCC(N)=O)NC(=O)[C@H](CCCCN)NC(=O)[C@H](CO)NC(=O)[C@H](CC(C)C)NC(=O)[C@H](CC(=O)O)NC(=O)[C@H](CO)NC(=O)[C@@H](NC(=O)[C@H](Cc1ccccc1)NC(=O)[C@@H](NC(=O)CNC(=O)[C@H](CCC(N)=O)NC(=O)[C@@H](CO)NC(=O)[C@@H](N)Cc1c[nH]cn1)[C@@H](C)O)[C@@H](C)O)[C@@H](C)CC)C(N)=O)C(=O)O [(72)] (H-H[dS]QGTFTSDLSKQMDSRRAQDFIEWLK[Aib]GGPSSGAPPPSK([γGlu-Palmitoyl])-NH2)
- EC50: 5.2 pM

Structure (SMILES): CCCCCCCCCCCCCCCC(=O)N[C@@H](CCC(=O)NCCCC[C@H](NC(=O)[C@@H]1CCCN1C(=O)[C@@H]1CCCN1C(=O)[C@@H]1CCCN1C(=O)[C@H](C)NC(=O)CNC(=O)[C@H](CO)NC(=O)[C@H](CO)NC(=O)[C@@H]1CCCN1C(=O)CNC(=O)CNC(=O)C(C)(C)NC(=O)[C@H](CCCCN)NC(=O)[C@H](CC(C)C)NC(=O)[C@H](Cc1c[nH]c2ccccc12)NC(=O)[C@H](CCC(=O)O)NC(=O)[C@@H](NC(=O)[C@H](Cc1ccccc1)NC(=O)[C@H](CC(=O)O)NC(=O)[C@H](CCC(N)=O)NC(=O)[C@H](C)NC(=O)[C@H](CCCNC(=N)N)NC(=O)[C@H](CCCNC(=N)N)NC(=O)[C@H](CO)NC(=O)[C@H](CCC(=O)O)NC(=O)[C@H](CCSC)NC(=O)[C@H](CCC(N)=O)NC(=O)[C@H](CCCCN)NC(=O)[C@H](CO)NC(=O)[C@H](CC(C)C)NC(=O)[C@H](CC(=O)O)NC(=O)[C@H](CO)NC(=O)[C@@H](NC(=O)[C@H](Cc1ccccc1)NC(=O)[C@@H](NC(=O)CNC(=O)[C@H](CCC(N)=O)NC(=O)[C@@H](CO)NC(=O)[C@@H](N)Cc1c[nH]cn1)[C@@H](C)O)[C@@H](C)O)[C@@H](C)CC)C(N)=O)C(=O)O [(80)] (H-H[dS]QGTFTSDLSKQMESRRAQDFIEWLK[Aib]GGPSSGAPPPK([γGlu-Palmitoyl])-NH2)
- EC50: 10.8 pM

Structure (SMILES): CCCCCCCCCCCCCCCC(=O)N[C@@H](CCC(=O)NCCC[C@H](NC(=O)[C@H](CO)NC(=O)[C@@H]1CCCN1C(=O)[C@@H]1CCCN1C(=O)[C@@H]1CCCN1C(=O)[C@H](C)NC(=O)CNC(=O)[C@H](CO)NC(=O)[C@H](CO)NC(=O)[C@@H]1CCCN1C(=O)CNC(=O)CNC(=O)[C@H](CO)NC(=O)[C@H](CCCCN)NC(=O)[C@H](CC(C)C)NC(=O)[C@H](Cc1c[nH]c2ccccc12)NC(=O)[C@H](CCC(=O)O)NC(=O)[C@@H](NC(=O)[C@H](Cc1ccccc1)NC(=O)[C@H](CC(=O)O)NC(=O)[C@H](CCC(N)=O)NC(=O)[C@H](C)NC(=O)[C@H](CCCNC(=N)N)NC(=O)[C@H](CCCNC(=N)N)NC(=O)[C@H](CO)NC(=O)[C@H](CCC(=O)O)NC(=O)[C@H](CCSC)NC(=O)[C@H](CCC(N)=O)NC(=O)[C@H](CCCCN)NC(=O)[C@H](CO)NC(=O)[C@H](CC(C)C)NC(=O)[C@H](CC(=O)O)NC(=O)[C@H](CO)NC(=O)[C@@H](NC(=O)[C@H](Cc1ccccc1)NC(=O)[C@@H](NC(=O)CNC(=O)[C@H](CCC(N)=O)NC(=O)[C@@H](CO)NC(=O)[C@@H](N)Cc1c[nH]cn1)[C@@H](C)O)[C@@H](C)O)[C@@H](C)CC)C(N)=O)C(=O)O [(88)] (H-H[dS]QGTFTSDLSKQMESRRAQDFIEWLKSGGPSSGAPPPS[Orn]([γGlu-Palmitoyl])-NH2)
- EC50: 5.1 pM

Structure (SMILES): CCCCCCCCCCCCCCCC(=O)N[C@@H](CCC(=O)NCCCC[C@H](NC(=O)[C@H](CO)NC(=O)[C@@H]1CCCN1C(=O)[C@@H]1CCCN1C(=O)[C@@H]1CCCN1C(=O)[C@H](C)NC(=O)CNC(=O)[C@H](CO)NC(=O)[C@H](CO)NC(=O)[C@@H]1CCCN1C(=O)CNC(=O)CNC(=O)[C@H](CO)NC(=O)[C@H](CCCCN)NC(=O)[C@H](CC(C)C)NC(=O)[C@H](Cc1c[nH]c2ccccc12)NC(=O)[C@H](CCC(=O)O)NC(=O)[C@@H](NC(=O)[C@H](Cc1ccccc1)NC(=O)[C@H](CC(C)C)NC(=O)[C@H](CCCNC(=N)N)NC(=O)[C@H](C)NC(=O)[C@H](CCCNC(=N)N)NC(=O)[C@H](CCCNC(=N)N)NC(=O)[C@H](CO)NC(=O)[C@H](CCC(=O)O)NC(=O)[C@H](CCSC)NC(=O)[C@H](CCC(N)=O)NC(=O)[C@H](CCCCN)NC(=O)[C@H](CO)NC(=O)[C@H](CC(C)C)NC(=O)[C@H](CC(=O)O)NC(=O)[C@H](CO)NC(=O)[C@@H](NC(=O)[C@H](Cc1ccccc1)NC(=O)[C@@H](NC(=O)CNC(=O)[C@H](CCC(N)=O)NC(=O)[C@@H](CO)NC(=O)[C@@H](N)Cc1c[nH]cn1)[C@@H](C)O)[C@@H](C)O)[C@@H](C)CC)C(N)=O)C(=O)O [(91)] (H-H[dS]QGTFTSDLSKQMESRRARLFIEWLKSGGPSSGAPPPSK([γGlu-Palmitoyl])-NH2)
- EC50: 6.7 pM
